Results: US7772271B2 (priority 2004, dated 2010)

SMILES | melting point
N#Cc1c(-c2ccc(NS(=O)(=O)C3CC3)cc2)n(C2CCC2)c2cc(C(=O)N3CCSCC3)ccc12 [Compound 2826] | 205 to 207 °C
N#Cc1c(-c2cnc(NC3CCCC3)nc2)n(C2CCC2)c2cc(Oc3ncccn3)ccc12 [Compound 3330] | 230 to 231 °C
N#Cc1c(-c2ccc(NC3CC3)nc2)n(C2CCC2)c2cc(Oc3ncccn3)ccc12 [Compound 3313] | 244 to 246 °C
COCCOc1ccc2c(C#N)c(-c3ccc(NC(C4CC4)C4CC4)cc3)n(C(C)C)c2c1 [Compound 2671] | 148 to 150 °C
CCCS(=O)(=O)Nc1ccc(-c2c(C#N)c3ccc(-c4c(C)noc4C)cc3n2C2CCC2)cc1 [Compound 2932] | 224 to 225 °C
CCCCNC(=O)Oc1ccc(-c2c(C#N)c3ccc(OC4CCOCC4)cc3n2CC2CC2)cc1 [Compound 2783] | 146 to 147 °C
CCCS(=O)(=O)Nc1ccc(-c2c(C#N)c3ccc(Oc4ncccc4F)cc3n2C2CC2)cc1 [Compound 2956] | 198 to 200 °C
CCS(=O)(=O)Nc1ccc(-c2c(C#N)c3ccc(C(=O)N4CCOCC4)cc3n2C2CCC2)cc1 [Compound 2898] | 220 to 222 °C
CCCS(=O)(=O)Nc1ccc(-c2c(C#N)c3ccc(Oc4ncccc4C(C)=O)cc3n2C2CCC2)cc1 [Compound 3311] | 191 to 194 °C
N#Cc1c(-c2ccc(Nc3nc(-c4ccc(F)cc4)cs3)cc2)n(C2CCC2)c2cc(OCCF)ccc12 [Compound 3206] | 234 to 236 °C
N#Cc1c(-c2ccc(OC[C@H]3CCCO3)cc2)n(CC2CC2)c2cc(OC3CCOCC3)ccc12 [Compound 2789] | 133 to 134 °C
CC(C)CS(=O)(=O)Nc1ccc(-c2c(C#N)c3ccc(-n4ccccc4=O)cc3n2C2CCC2)cc1 [Compound 3015] | 270 °C (dec.)
N#Cc1c(-c2ccc(N3CCCCS3(=O)=O)cc2)n(C2CC2)c2cc(Oc3ncccn3)ccc12 [Compound 3216] | 251 to 256 °C
CCn1c(-c2ccc(N)cc2)c(C#N)c2ccc(OCCOC)cc21 [Compound 1366] | 168 to 169 °C
N#Cc1c(-c2ccc(N3CCCCS3(=O)=O)cc2)n(C2CCC2)c2cc(Oc3cnccn3)ccc12 [Compound 3220] | 187 to 196 °C
CCOc1ccc2c(C#N)c(-c3ccc(NCCc4ccccn4)cc3)n(C3CCC3)c2c1 [compound 1433, 1-cyclobutyl-6-ethoxy-2-[4-(2-pyridin-2-yl-ethylamino)-phenyl]-1H-indole-3-carbonitrile] | 153 to 156 °C
CCn1c(-c2ccc(NC(=O)O[C@H](C)C(F)(F)F)cc2)c(C#N)c2ccc(Oc3ncccn3)cc21 [Compound 2929] | 221 to 223 °C

SMILES | melting point
CCCS(=O)(=O)Nc1ccc(-c2c(C#N)c3ccc(Oc4ncccc4C#N)cc3n2C2CCC2)c(F)c1 [Compound 3346] | 113 to 116 °C
CCCS(=O)(=O)Nc1ccc(-c2c(C#N)c3ccc(Oc4nccnc4C#N)cc3n2C2CCC2)cc1 [Compound 3181] | 218 to 220 °C
CCCS(=O)(=O)Nc1ccc(-c2c(C#N)c3ccc(N4CCCC4)cc3n2C2CCC2)cc1 [Compound 2955] | 229 to 234 °C
CCCS(=O)(=O)Nc1ccc(-c2c(C#N)c3ccc(Oc4ncccc4C(F)(F)F)cc3n2C2CCC2)cc1 [Compound 3201] | 181 to 184 °C
CCn1c(-c2ccc(NS(=O)(=O)CC)cc2)c(C#N)c2ccc(C(=O)N3CCOCC3)cc21 [Compound 1361] | 238 to 241 °C
C[C@@H](OC(=O)Nc1ccc(-c2c(C#N)c3cc(OCCCn4cncn4)ccc3n2C2CCC2)cc1)c1ccccc1 [Compound 2734] | 206 to 208 °C
CC(C)S(=O)(=O)Nc1ccc(-c2c(C#N)c3ccc(N4CCCC4)cc3n2C2CCC2)cc1 [Compound 2975] | 256 to 261 °C
CN1CCN(C(=O)c2ccc3c(C#N)c(-c4ccc(NS(=O)(=O)C5CC5)cc4)n(C4CCC4)c3c2)CC1 [Compound 3114] | 124 to 127 °C
CS(=O)(=O)Nc1ccc(-c2c(C#N)c3ccc(N4CCCCC4)cc3n2C2CCC2)cc1 [Compound 2984] | 229 to 233 °C
N#Cc1c(-c2ccc(NS(=O)(=O)C3CC3)cc2)n(CC2CCCO2)c2cc(OC(F)F)ccc12 (stereo not shown) [Compound 1335] | 179 to 180 °C
CCCS(=O)(=O)Nc1ccc(-c2c(C#N)c3ccc(Oc4ncccc4C#N)cc3n2C2CCC2)cc1C [Compound 3290] | 176 to 180 °C
CCCS(=O)(=O)Nc1cc(C)c(-c2c(C#N)c3ccc(Oc4ncccc4C#N)cc3n2C2CCC2)cc1C [Compound 3335] | 227 to 230 °C
CCCS(=O)(=O)Nc1ccc(-c2c(C#N)c3cc(C(=O)N4CCOCC4)ccc3n2C2CCC2)cc1 [Compound 3098] | 128 to 129 °C
COCCOc1ccc2c(C#N)c(-c3ccc(NC(=O)OC(C)C)cc3)n(C(C)C)c2c1 [Compound 2608] | 153 to 155 °C
CC(C)NC(=O)Nc1c(F)cc(-c2c(C#N)c3ccc(OCCF)cc3n2C2CCC2)cc1F [Compound 3041] | 224 to 229 °C
CC(OC(=O)Nc1ccc(-c2c(C#N)c3ccc(OCCCCn4ccnc4)cc3n2C2CCC2)cc1)c1ccc(F)cc1 (stereo not shown) [Compound 2642] | 93 to 95 °C

Now from value to molecule:

melting point | SMILES
198 to 199 °C | CC(OC(=O)Nc1ccc(-c2c(C#N)c3ccc(OC4CCOCC4)cc3n2C2CCC2)cc1)C1CCC1 (stereo not shown) [Compound 2871]
90 to 94 °C | COCCCNC(=O)c1ccc2c(C#N)c(-c3ccc(NC(=O)O[C@H](C)C4CC4)cc3)n(C3CCC3)c2c1 [Compound 2792]
159 to 162 °C | C[C@@H](OC(=O)Nc1ccc(-c2c(C#N)c3ccc(OCCN4CCCC4=O)cc3n2C2CCC2)cc1)C1CC1 [Compound 3266]
172 to 177 °C | CSc1nccc(Oc2ccc3c(C#N)c(-c4ccc(NC(=O)O[C@H](C)C5CC5)cc4)n(C4CCC4)c3c2)n1 [Compound 3089]
240 to 245 °C | Cc1nccc(Oc2ccc3c(C#N)c(-c4ccc(NC(=O)NC(C)C)cc4)n(C4CCC4)c3c2)n1 [Compound 2761]
148 to 150 °C | CC(C)OC(=O)Nc1ccc(-c2c(C#N)c3cc(OCCCn4cccn4)ccc3n2C2CCC2)cc1 [Compound 2606]
180 to 181 °C | N#Cc1c(-c2ccc(NCc3ccccc3F)cc2)n(C2CCC2)c2cc(OC3CCOCC3)ccc12 [Compound 3120]
202 to 205 °C | CC(C)NC(=O)Oc1ccc2c(C#N)c(-c3ccc(NC(=O)O[C@H](C)C4CC4)cc3)n(C3CCC3)c2c1 [Compound 3174]
124 to 127 °C | C[C@@H](OC(=O)Nc1ccc(-c2c(C#N)c3ccc(C(=O)N4CCCC4)cc3n2C2CCC2)cc1)C1CC1 [Compound 2788]
195 to 196 °C | N#Cc1c(-c2ccc(NS(=O)(=O)C3CCCC3)cc2)n(C2CCC2)c2cc(OC3COCOC3)ccc12 [Compound 2918]
215 to 217 °C | Cc1csc(Nc2ccc(-c3c(C#N)c4ccc(OC5CCOCC5)cc4n3C3CCC3)cc2)n1 [Compound 3152]
162 to 164 °C | COCCOc1ccc2c(C#N)c(-c3ccc(C(=O)N4CCCC4)cc3)n(C3CCC3)c2c1 [Compound 2756]
96 to 98 °C | CC(OC(=O)Nc1ccc(-c2c(C#N)c3ccc(OC4CCOCC4)cc3n2C2CCC2)cc1)c1ccccc1 (stereo not shown) [Compound 2618]
189 to 191 °C | CC(OC(=O)Nc1ccc(-c2c(C#N)c3ccc(OC4CCCO4)cc3n2C2CC2)cc1)C1CC1 (stereo not shown) [compound 1444, {4-[3-cyano-1-cyclopropyl-6-(tetrahydrofuran-2-yloxy)indol-2-yl]phenyl}carbamic acid 1-cyclopropylethyl ester]
210 to 212 °C | CC(C)CS(=O)(=O)Nc1ccc(-c2c(C#N)c3ccc(C(=O)N4CCOCC4)cc3n2C2CCC2)cc1 [Compound 2901]
173 to 190 °C | CC(C)OC(=O)Nc1ccc(-c2c(C#N)c3ccc(OC4CCS(=O)(=O)CC4)cc3n2C(C)C)cc1 [Compound 3236]

melting point | SMILES
209 to 211 °C | CC(C)OC(=O)Nc1ccc(-c2c(C#N)c3cc(OCCCn4ccnc4)ccc3n2C2CCC2)cc1 [Compound 2607]
125 to 128 °C | N#Cc1c(-c2ccc(Nc3ccccc3Cl)cc2)n(C2CCC2)c2cc(OC3CCOCC3)ccc12 [Compound 3160]
120 to 125 °C | C[C@H](NS(=O)(=O)Nc1ccc(-c2c(C#N)c3ccc(Oc4ncccc4Cl)cc3n2C2CCC2)cc1)C1CC1 [Compound 3017]
217 to 218 °C | C[C@@H](OC(=O)Nc1ccc(-c2c(C#N)c3cc(Oc4ncccc4C#N)ccc3n2C2CCC2)cc1)C1CC1 [Compound 3256]
192 to 196 °C | CCOc1ccc2c(C#N)c(-c3ccc(NC(=O)NC(C)COC)cc3)n(C3CCC3)c2c1 (stereo not shown) [Compound 1441]
180 to 183 °C | CCOc1ccc2c(C#N)c(-c3ccc(NC(=O)O[C@H](C)c4ccncc4)cc3)n(C3CCC3)c2c1 [Compound 2705]
161 to 162 °C | C[C@@H](OC(=O)Nc1ccc(-c2c(C#N)c3ccc(OCCCCn4cncn4)cc3n2C2CCC2)cc1)C(F)(F)F [Compound 2830]
195 to 196 °C | CC(OC(=O)Nc1ccc(-c2c(C#N)c3ccc(OCc4cnccn4)cc3n2C2CCC2)cc1)C(F)(F)F (stereo not shown) [Compound 3021]
211 to 215 °C | CCOc1ccc2c(C#N)c(-c3ccc(NC(=O)OC4CCN(C(C)=O)CC4)cc3)n(C3CCC3)c2c1 [Compound 3072]
168 to 169 °C | COCCOc1ccc2c(C#N)c(-c3ccc(NC(=O)OC4CCCC4)cc3)n(C3CCC3)c2c1 [Compound 1400]
214 to 215 °C | Cc1nccnc1Oc1ccc2c(c1)c(C#N)c(-c1ccc(NC(=O)O[C@H](C)C3CC3)cc1)n2C1CCC1 [Compound 3254]
194 to 196 °C | COCCOc1ccc2c(C#N)c(-c3ccc(C(=O)NC4CCCC4)cc3)n(C3CCC3)c2c1 [Compound 2758]
141 to 142 °C | CCOCCOc1ccc2c(C#N)c(-c3ccc(NC(=O)OC(C)C4CC4)cc3)n(C3CCC3)c2c1 (stereo not shown) [Compound 2613]
88 to 100 °C | COCCOc1ccc2c(C#N)c(-c3ccc(NC(=O)O[C@H](C)C4CC4)cc3)n(C(C)C)c2c1 [Compound 2719]
225 to 226 °C | CCN(CC)C(=O)c1ccc2c(c1)c(C#N)c(-c1ccc(NC(=O)OC(C)C)cc1)n2C1CCC1 [Compound 3145]
